Measured values reported in PubChem BioAssay AID2060614 (Molecular Pharmacology Branch, DTP, NCI, 2025).
pIC50: −log10 of the molar value.

System: 598228-144-R-J1-PDC complex spheroids, viability
Test: Anticancer human tumor 598228-144-R-J1-PDC patient-derived serous endometrial adenocarcinoma cell line growth inhibition [CLK]
Conditions: for pIC50: curve of first compound; for viability, T/C: stronger effect = lower value; active = viability on the fitted dose curve at most 10% of control; inactive = the rest
Procedure, shortened: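 Patient-derived tumor cells grown as complex spheroids with HUVEC endothelial cells and mesenchymal stem cells, treated with drug combinations. Concentrations descend in half-log steps from near clinical Cmax, or from 10 microM if Cmax unknown.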

[1] = second compound 0.0316 µM, first compound 0.00316 µM
[2] = second compound 0.0316 µM, first compound 0.01 µM
[3] = second compound 0.0316 µM, first compound 0.0316 µM
[4] = second compound 0.0316 µM, first compound 0.1 µM
[5] = second compound 0.0316 µM, first compound 0.316 µM
[6] = second compound 0.0316 µM, first compound 1 µM
[7] = second compound 0.1 µM, first compound 0.00316 µM
[8] = second compound 0.1 µM, first compound 0.01 µM
[9] = second compound 0.1 µM, first compound 0.0316 µM
[10] = second compound 0.1 µM, first compound 0.1 µM
[11] = second compound 0.1 µM, first compound 0.316 µM
[12] = second compound 0.1 µM, first compound 1 µM
[13] = second compound 0.316 µM, first compound 0.00316 µM
[14] = second compound 0.316 µM, first compound 0.01 µM
[15] = second compound 0.316 µM, first compound 0.0316 µM
[16] = second compound 0.316 µM, first compound 0.1 µM
[17] = second compound 0.316 µM, first compound 0.316 µM
[18] = second compound 0.316 µM, first compound 1 µM
[19] = second compound 1 µM, first compound 0.00316 µM
[20] = second compound 1 µM, first compound 0.01 µM
[21] = second compound 1 µM, first compound 0.0316 µM
[22] = second compound 1 µM, first compound 0.1 µM
[23] = second compound 1 µM, first compound 0.316 µM
[24] = second compound 1 µM, first compound 1 µM
[25] = second compound 3.16 µM, first compound 0.00316 µM
[26] = second compound 3.16 µM, first compound 0.01 µM
[27] = second compound 3.16 µM, first compound 0.0316 µM
[28] = second compound 3.16 µM, first compound 0.1 µM
[29] = second compound 3.16 µM, first compound 0.316 µM
[30] = second compound 3.16 µM, first compound 1 µM
[31] = second compound 10 µM, first compound 0.00316 µM
[32] = second compound 10 µM, first compound 0.01 µM
[33] = second compound 10 µM, first compound 0.0316 µM
[34] = second compound 10 µM, first compound 0.1 µM
[35] = second compound 10 µM, first compound 0.316 µM
[36] = second compound 10 µM, first compound 1 µM
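Also: spheroids exposed to compounds for seven days before readout.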
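For viability, T/C in this document: 100% = DMSO vehicle control wells.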

COc1c(OCCCN2CCOCC2)ccc2c3n(c(=NC(=O)c4cnc(N)nc4)nc12)CCN3 + CN1CCN(c2cc(C(=O)Nc3cc4cc(-c5cnn(C)c5)ccc4cn3)ccn2)CC1
inactive: viability, T/C [1] 98.2% | viability, T/C [2] 75.7% | viability, T/C [3] 46.8% | viability, T/C [4] 31.9% | viability, T/C [5] 15.7% | viability, T/C [7] 85.5% | viability, T/C [8] 66.5% | viability, T/C [9] 36.7% | viability, T/C [10] 23.5% | viability, T/C [11] 9.69% | viability, T/C [13] 10.5%
7.51: pIC50 (second compound 0.0316 µM)
7.71: pIC50 (second compound 0.1 µM)
> 8.50: pIC50 (second compound 0.316 µM) | pIC50 (second compound 1 µM) | pIC50 (second compound 3.16 µM) | pIC50 (second compound 10 µM)
active: viability, T/C [6] 8.56% | viability, T/C [12] 10.4% | viability, T/C [14] 8.73% | viability, T/C [15] 5.42% | viability, T/C [16] 2.85% | viability, T/C [17] 2.66% | viability, T/C [18] 2.22% | viability, T/C [19] 1.16% | viability, T/C [20] 0.94% | viability, T/C [21] 0.73% | viability, T/C [22] 0.29% | viability, T/C [23] 1.53% | viability, T/C [24] 3.1% | viability, T/C [25] 0.95% | viability, T/C [26] 2.7% | viability, T/C [27] 0.9% | viability, T/C [28] 0.57% | viability, T/C [29] 1.8% | viability, T/C [30] 4.26% | viability, T/C [31] 0.66% | viability, T/C [32] 2.16% | viability, T/C [33] 2.49% | viability, T/C [34] 0.4% | viability, T/C [35] 0.59% | viability, T/C [36] 3.39%

C=C(F)C(=O)N1CCN(c2nc(OCC3CCCN3C)nc3c2CCN(c2cccc4cccc(Cl)c24)C3)CC1CC#N (stereo unspecified) + CN1CCN(c2cc(C(=O)Nc3cc4cc(-c5cnn(C)c5)ccc4cn3)ccn2)CC1
active: viability, T/C (second compound 0.0316 µM, first compound 10 µM) 1.53% | viability, T/C (second compound 0.1 µM, first compound 10 µM) 1.5% | viability, T/C (second compound 0.316 µM, first compound 3.16 µM) 11.9% | viability, T/C (second compound 0.316 µM, first compound 10 µM) 0.14% | viability, T/C [21] 2.31% | viability, T/C [22] 2.11% | viability, T/C [23] 1.77% | viability, T/C [24] 1.1% | viability, T/C (second compound 1 µM, first compound 3.16 µM) 1.88% | viability, T/C (second compound 1 µM, first compound 10 µM) 0.11% | viability, T/C [27] 1.76% | viability, T/C [28] 3.04% | viability, T/C [29] 1.61% | viability, T/C [30] 2.21% | viability, T/C (second compound 3.16 µM, first compound 3.16 µM) 2.11% | viability, T/C (second compound 3.16 µM, first compound 10 µM) 0.17% | viability, T/C [33] 1.18% | viability, T/C [34] 1.1% | viability, T/C [35] 3.38% | viability, T/C [36] 0.85% | viability, T/C (second compound 10 µM, first compound 3.16 µM) 1.73% | viability, T/C (second compound 10 µM, first compound 10 µM) 3.8%
> 7.50: pIC50 (second compound 0.316 µM) | pIC50 (second compound 1 µM) | pIC50 (second compound 3.16 µM) | pIC50 (second compound 10 µM)
5.26: pIC50 (second compound 0.1 µM)
inactive: viability, T/C [3] 120% | viability, T/C [4] 116% | viability, T/C [5] 123% | viability, T/C [6] 122% | viability, T/C (second compound 0.0316 µM, first compound 3.16 µM) 91.6% | viability, T/C [9] 131% | viability, T/C [10] 123% | viability, T/C [11] 116% | viability, T/C [12] 135% | viability, T/C (second compound 0.1 µM, first compound 3.16 µM) 95.7% | viability, T/C [15] 17.1% | viability, T/C [16] 20% | viability, T/C [17] 17.4% | viability, T/C [18] 18.9%
5.27: pIC50 (second compound 0.0316 µM)

COc1c(OCCCN2CCOCC2)ccc2c3n(c(=NC(=O)c4cnc(N)nc4)nc12)CCN3 + CNC(=O)c1ccc(Nc2nc(OC3CCCC3)c3c(-c4ccc5nc(C)oc5c4)c[nH]c3n2)c(OC)c1
7.74: pIC50 (second compound 0.316 µM)
7.58: pIC50 (second compound 0.0316 µM)
7.52: pIC50 (second compound 0.1 µM)
7.82: pIC50 (second compound 1 µM)
inactive: viability, T/C [1] 85.7% | viability, T/C [2] 65.5% | viability, T/C [3] 49% | viability, T/C [4] 26.5% | viability, T/C [5] 15.7% | viability, T/C [7] 104% | viability, T/C [8] 74.2% | viability, T/C [9] 51.4% | viability, T/C [10] 25.8% | viability, T/C [11] 13.6% | viability, T/C [13] 97.8% | viability, T/C [14] 65.4% | viability, T/C [15] 35.7% | viability, T/C [16] 19.6% | viability, T/C [17] 11.3% | viability, T/C [19] 86.8% | viability, T/C [20] 61.4% | viability, T/C [21] 29.9% | viability, T/C [22] 16.6% | viability, T/C [25] 73.5% | viability, T/C [26] 51.5% | viability, T/C [27] 28.4% | viability, T/C [28] 13.9% | viability, T/C [31] 71.2% | viability, T/C [32] 50.3% | viability, T/C [33] 24.8% | viability, T/C [34] 12.9%
active: viability, T/C [6] 9.14% | viability, T/C [12] 5.09% | viability, T/C [18] 5.13% | viability, T/C [23] 8.67% | viability, T/C [24] 5.42% | viability, T/C [29] 7.8% | viability, T/C [30] 3.58% | viability, T/C [35] 6.23% | viability, T/C [36] 5.18%
8.00: pIC50 (second compound 10 µM)
7.97: pIC50 (second compound 3.16 µM)
